From ChEMBL document CHEMBL4402557, “Nidufexor (LMB763), a Novel FXR Modulator for the Treatment of Nonalcoholic Steatohepatitis” (J Med Chem, 2020) come the findings set out here.

Active and inactive are the calls of the source.

For data set [1], the target named is T1, Bile acid receptor (Homo sapiens, UniProt Q96RI1).
T1 sequence (Q96RI1 whole entry): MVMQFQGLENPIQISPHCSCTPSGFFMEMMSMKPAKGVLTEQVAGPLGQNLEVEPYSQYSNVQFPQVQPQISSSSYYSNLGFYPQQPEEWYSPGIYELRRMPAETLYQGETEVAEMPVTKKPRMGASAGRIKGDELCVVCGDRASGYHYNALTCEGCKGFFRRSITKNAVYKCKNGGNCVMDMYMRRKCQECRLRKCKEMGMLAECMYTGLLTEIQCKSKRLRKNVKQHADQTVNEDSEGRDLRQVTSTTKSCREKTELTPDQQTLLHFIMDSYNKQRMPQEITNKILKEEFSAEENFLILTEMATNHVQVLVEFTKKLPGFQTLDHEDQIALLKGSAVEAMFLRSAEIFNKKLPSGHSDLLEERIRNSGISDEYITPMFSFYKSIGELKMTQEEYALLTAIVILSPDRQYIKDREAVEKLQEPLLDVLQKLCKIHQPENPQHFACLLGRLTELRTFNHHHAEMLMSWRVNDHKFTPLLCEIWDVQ
The experiment in a line: Agonist activity at GST-tagged human FXR-LBD (193 to 472 residues) using biotinylated SRC-1 peptide as substrate incubated for 1 hrs by HTRF assay. Background: Time-resolved FRET reads energy transfer from a long-lived donor to a nearby acceptor.

Data set [2] in a line: Volume of distribution at steady state in Wistar rat at 3 mg/kg, iv. In kind it is ADME, organism-based. As to conditions: in vivo, read-out: Vdss.
Data set [3] can be described thus: Oral bioavailability in Wistar rat at 10 mg/kg in presence of TRIS salt. As to conditions: in vivo. In kind it is ADME, organism-based.
The nature of data set [4]: AUC in Wistar rat at 100 mg/kg, po. In kind it is ADME, organism-based. As to conditions: in vivo.
Data set [5] can be described thus: Cmax in Wistar rat at 30 mg/kg, po. Set-up: dose 30 mg/kg, route oral. Format: ADME, organism-based. As to conditions: in vivo.
Data set [6] is described as follows: Cmax in Wistar rat at 100 mg/kg, po. In kind it is ADME, organism-based. Set-up: dose 100 mg/kg, route oral. As to conditions: in vivo.
A short description of data set [7]: Half life in Wistar rat at 30 mg/kg, po. In kind it is ADME, organism-based. As to conditions: in vivo.
Data set [8] is described as follows: Half life in Wistar rat at 300 mg/kg, po. Format: ADME, organism-based. The note with it: in vivo.
Data set [9] can be described thus: Oral bioavailability in Wistar rat at 3 mg/kg. In kind it is ADME, organism-based. The note with it: in vivo.
Data set [10] in a line: Oral bioavailability in Wistar rat at 10 mg/kg. In kind it is ADME, organism-based. The note with it: in vivo.
Data set [11] is described as follows: Oral bioavailability in Wistar rat at 300 mg/kg. Format: ADME, organism-based. As to conditions: in vivo.
Data set [12] in a line: AUC in Wistar rat plasma at 10 mg/kg, po. Format: ADME, organism-based.
Data set [13] can be described thus: AUC in Wistar rat liver at 10 mg/kg, po. In kind it is ADME, organism-based.
Data set [14] can be described thus: Ratio of AUC in Brain to plasma in Wistar rat […] at 10 mg/kg, po. As to conditions: read-out: Ratio AUC. Format: ADME, organism-based.
The target of data set [15] is T2, Androgen receptor (Homo sapiens, UniProt P10275).
T2 sequence (P10275 whole entry): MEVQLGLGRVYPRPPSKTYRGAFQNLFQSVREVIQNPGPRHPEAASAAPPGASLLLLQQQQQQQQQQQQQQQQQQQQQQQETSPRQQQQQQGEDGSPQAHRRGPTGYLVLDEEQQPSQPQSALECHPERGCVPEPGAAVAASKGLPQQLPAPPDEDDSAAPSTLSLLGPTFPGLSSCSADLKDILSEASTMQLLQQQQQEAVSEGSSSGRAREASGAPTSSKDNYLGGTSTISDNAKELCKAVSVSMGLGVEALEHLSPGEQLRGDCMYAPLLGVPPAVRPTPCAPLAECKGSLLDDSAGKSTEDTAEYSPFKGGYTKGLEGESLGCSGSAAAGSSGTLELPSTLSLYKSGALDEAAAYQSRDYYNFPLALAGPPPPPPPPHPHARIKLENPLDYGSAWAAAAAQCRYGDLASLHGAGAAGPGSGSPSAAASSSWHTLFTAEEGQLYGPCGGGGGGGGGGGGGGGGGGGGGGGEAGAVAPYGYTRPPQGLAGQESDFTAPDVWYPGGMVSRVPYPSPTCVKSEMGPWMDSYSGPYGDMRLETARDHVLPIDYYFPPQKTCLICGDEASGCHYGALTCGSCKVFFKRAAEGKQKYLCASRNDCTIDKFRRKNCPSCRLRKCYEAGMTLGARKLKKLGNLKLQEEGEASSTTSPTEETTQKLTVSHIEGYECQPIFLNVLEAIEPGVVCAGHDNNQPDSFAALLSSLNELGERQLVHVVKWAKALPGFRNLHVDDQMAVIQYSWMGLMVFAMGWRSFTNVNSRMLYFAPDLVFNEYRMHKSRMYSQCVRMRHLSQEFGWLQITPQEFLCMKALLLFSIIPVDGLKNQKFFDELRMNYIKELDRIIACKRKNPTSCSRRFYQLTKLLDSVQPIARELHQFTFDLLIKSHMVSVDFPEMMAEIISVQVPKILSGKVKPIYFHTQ
The data set can be described thus: Agonist activity at androgen receptor (unknown origin) incubated for 2 hrs by TR-FRET assay.

For data set [16], the system named is Rattus norvegicus. The data set can be described thus: In-vivo agonist activity at FXR in orally dosed Han Wistar rat assessed as upregulation of SHP mRNA level in ileum administered via oral gavage once daily for 14 days measured post last dose by qRT-PCR analysis. In kind it is functional, organism-based. (In general: Quantitative PCR measures a nucleic acid by following its amplification.)

Data set [17] concerns Mus musculus. The data set can be described thus: Anti Steato-hepatitic activity in STZ/HFD induced oral dosed C57BL/6J mouse STAM model assessed as reduction in macrovesicular fat deposition administered via oral gavage once daily for 3 weeks and measured on 9 week by H and E staining based assay. In kind it is functional, organism-based.
For data set [18], the system named is Mus musculus. The experiment in a line: Anti Steato-hepatitic activity in STZ/HFD induced C57BL/6J mouse STAM model assessed as reduction in fibrosis at 3 to 30 mg/kg, po administered via oral gavage once daily for 3 weeks and measured on 9 week by Picro-Sirius Red staining based assay. Format: functional, organism-based.
Data set [19] is filed under the species Mus musculus. The data set can be described thus: Anti Steato-hepatitic activity in C57BL/6J mouse STAM model assessed as change in Cyp8b1 gene level in liver. In kind it is functional, organism-based.
Data set [20] can be described thus: Clearance in dog at 0.5 mg/kg, iv. Format: ADME, organism-based, Canis lupus familiaris. The note with it: in vivo.
Data set [21] is described as follows: Half life in mouse at 3 mg/kg, iv. As to conditions: in vivo. In kind it is ADME, organism-based.

Take `Cn1nc(C(=O)N(Cc2ccccc2)Cc2ccc(C(=O)O)cc2)c2c1-c1cc(Cl)ccc1OC2` [NIDUFEXOR]: the EC50 (as a rule, the concentration at which the effect is half-maximal) in data set [1] was 7 nM; in data set [15], > 30000 nM. In data set [2], the Vd worked out at 0.8 L/kg. For the same compound, the bioavailability (as a rule, the share of a dose that reaches the circulation, judged against a reference dose that is usually intravenous) in data set [3] stood at 52%; in [9], 63%; in data set [10], 52%; in data set [11], 72%. Moreover, the AUC (in general, the area under the concentration-time curve, a measure of exposure) in data set [4] turned out to be 399 µM·h; in [12] it was 24.5 µM·h; in [13] it was 36.7 µM·h. The Cmax (in general, the maximum level reached in the sampled fluid or tissue) in data set [5] is 28.1 µM; in data set [6], 80.9 µM. In addition, the half-life – broadly, the time needed for the level to fall by half in the phase considered – is 6.3 h in data set [7], 6.3 h in [8] and 4.5 h in data set [21]. The Kp in data set [14] was 0.05. Also, the Activity entry in [16] and in data set [17] was “Dose-dependent effect” each time. Moreover, the outcome in data set [18] and in data set [19] was Active. Besides, the clearance (as a rule, the rate of elimination divided by the concentration) in data set [20] was 3.6 mL/min/kg.
